Columns and labels:
HepG2 cell line = assay: In vitro toxicity study on HepG2 cell line (resazurin, viability and IC50); assay type: cell-based, human; details: resazurin; for Viability (%) at different lipid concentrations, mean: HepG2 cells, 48 h post-treatment, relative to ethanol vehicle controls; for IC50: Homo sapiens, lipid toxicity, HepG2, 48 h post-treatment, 6.25-800 μM, read-out: IC50 value, μM (on HepG2 cell)
Summary of the method: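 HepG2 cells (1000/well) were treated after overnight incubation with lipids at 6.25–800 μM for 48 h. Viability was read by resazurin fluorescence (530/580 nm) after 5 h at 37 °C, relative to ethanol vehicle controls. IC50 values came from concentration-response curves.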

HeLa cells = assay: Transfection efficiency with Luciferase (SecNLuc) mRNA, Nano-Glo assay (Method A); assay type: cell-based; details: Luc mRNA, 24 h, luminescence; for Transfection 10 ng mRNA: 10 ng mRNA/well; for Transfection 50 ng mRNA: 50 ng mRNA/well; for Transfection 100 ng mRNA: 100 ng mRNA/well
Protocol: The synthesized lipids were tested in term of in vitro transfection efficacy and toxicity on HeLa cells. In order to perform the mentioned biological tests, appropriate LNPs had to be formulated from the synthesized lipids. The formulation technique was different in Method A and B. The particle size, polydispersity index (PDI) and zeta potential of resulting LNPs were determined by means of Dynamic Light Scattering technique (DLS). Prior to biological testing the encapsulation efficiency (EE) of the loaded LNPs was determined by using RiboGreen RNA assay. In case of Method A Luc mRNA while in case of Method B GFP mRNA was transfected into the cells. In parallel with the transfection experiments, toxicity of the investigated LNPs was determined, in case of Method A resazurin assay while in case of Method B MTT assay was used. Additionally, the toxicity of the lipids was investigated on HepG2 cells and IC50 values were determined.
• 1. Prepare mRNA solution by adding 100 ng mRNA (SecNLuc, #P009024, RiboPro) to 5 μl Opti-MEM • multiply by number of wells, include different concentrations and add 10% extra • a standard set-up we use is 100 ng-50 ng-10 ng mRNA/well in triplicate, which would need […] mRNA (includes 10% extra)
• 2. (If applicable) Prepare different concentrations in Opti-MEM (for instance 100/50/10 ng). • 3. Add 10 μl to each well and mix carefully by pipetting. • 4. Mix by swirling the plate horizontally at modest speed. Reverse in direction 3 times. • 5. Incubate for 24 hours (incubator).
This protocol is applied to measure luciferase activity for secreted NanoLuc and is based on the protocol by Promega (Nano-Glo® Luciferase Assay System #N1110-1150). The protocol is designed for a 384-wells plate, but volumes can be changed accordingly for other plates.
• 1. Plate cells (HeLa) in 96-well plate, grow until 80% confluent and transfect with SecNanoLuc mRNA and incubate for the desired period (24 h). • 2. After incubation, the translated protein is accumulated in the medium. Transfer medium to a new plate or tubes. • 3. Transfer 12 μl of each sample to a black-walled, clear-bottom 384-well plate • Black-walled plates are important to prevent shine-through of luminescence from other wells; alternatively, multiple wells between samples can be left empty. • 4. Set-up plate reader • 5. Prepare the desired amount of Nano-Glo® Luciferase Assay Reagent by combining one volume of Nano-Glo® Luciferase Assay Substrate with 50 volumes of Nano-Glo® Luciferase Assay Buffer: • a. composition: 100 mM MES pH 6; 1 mM EDTA; […]; 150 mM KCl; 1 mM DTT; 35 mM Thiourea; • b. briefly spin tubes containing substrate in a microcentrifuge before use. • 6. Add and mix (by pipetting) 12 μl Nano-Glo® Luciferase Assay Reagent per well • Wait approximately 3 minutes before measuring luminescence. […] Measure luminescence in plate reader using standard protocol luciferase (this includes mixing sample in plate reader)

SMILES: CCCCC/C=C\C/C=C\CCCCCCCCOC(CCCCCCC/C=C\C/C=C\CCCCC)O[Si](C)(C)OCCCCCCN(CCO)CCO (stereo not drawn) [Example 48, (23Z,26Z)-13-((8Z,11Z)-heptadeca-8,11-dien-1-yl)-3-(2-hydroxyethyl)-11,11-dimethyl-10,12,14-trioxa-3-aza-11-siladotriaconta-23,26-dien-1-ol]
- Viability (%) at different lipid concentrations, mean (HepG2 cell line; 6.25 μM lipid): 97.4%
- Viability (%) at different lipid concentrations, mean (HepG2 cell line; 12.5 μM lipid): 102.2%
- Viability (%) at different lipid concentrations, mean (HepG2 cell line; 25 μM lipid): 95.7%
- Viability (%) at different lipid concentrations, mean (HepG2 cell line; 50 μM lipid): 97.8%
- Viability (%) at different lipid concentrations, mean (HepG2 cell line; 100 μM lipid): 99.6%
- Viability (%) at different lipid concentrations, mean (HepG2 cell line; 200 μM lipid): 101.5%
- Viability (%) at different lipid concentrations, mean (HepG2 cell line; 400 μM lipid): 98.4%
- Viability (%) at different lipid concentrations, mean (HepG2 cell line; 800 μM lipid): 68.3%
- IC50 (HepG2 cell line): > 800 µM
- Transfection 10 ng mRNA (HeLa cells): 5.52E+02
- Transfection 50 ng mRNA (HeLa cells): 1.65E+03
- Transfection 100 ng mRNA (HeLa cells): 1.82E+03

SMILES: CCCCCCCCCCCCCCCCOC(CCCCCCCCCCCCCCC)O[Si](C)(C)OCCCCCCN(CCO)CCO (stereo not drawn) [Example 49, 3-(2-hydroxyethyl)-11,11-dimethyl-13-pentadecyl-10,12,14-trioxa-3-aza-11-silatriacontan-1-ol]
- Viability (%) at different lipid concentrations, mean (HepG2 cell line; 6.25 μM lipid): 101.6%
- Viability (%) at different lipid concentrations, mean (HepG2 cell line; 12.5 μM lipid): 100.3%
- Viability (%) at different lipid concentrations, mean (HepG2 cell line; 25 μM lipid): 100.4%
- Viability (%) at different lipid concentrations, mean (HepG2 cell line; 50 μM lipid): 101.0%
- Viability (%) at different lipid concentrations, mean (HepG2 cell line; 100 μM lipid): 106.4%
- Viability (%) at different lipid concentrations, mean (HepG2 cell line; 200 μM lipid): 118.4%
- Viability (%) at different lipid concentrations, mean (HepG2 cell line; 400 μM lipid): 112.6%
- Viability (%) at different lipid concentrations, mean (HepG2 cell line; 800 μM lipid): 103.0%
- IC50 (HepG2 cell line): > 800 µM
- Transfection 10 ng mRNA (HeLa cells): 1.35E+05
- Transfection 50 ng mRNA (HeLa cells): 6.74E+05
- Transfection 100 ng mRNA (HeLa cells): 1.20E+06

SMILES: CCCCCCCC/C=C\CCCCCCCC(OCC(CCCCCC)CCCCCCCC)O[Si](C)(C)OCCCCCCN(CCO)CCO (stereo not drawn) [Example 50, (Z)-13-(heptadec-8-en-1-yl)-16-hexyl-3-(2-hydroxyethyl)-11,11-dimethyl-10,12,14-trioxa-3-aza-11-silatetracosan-1-ol]
- Viability (%) at different lipid concentrations, mean (HepG2 cell line; 6.25 μM lipid): 101.0%
- Viability (%) at different lipid concentrations, mean (HepG2 cell line; 12.5 μM lipid): 97.6%
- Viability (%) at different lipid concentrations, mean (HepG2 cell line; 25 μM lipid): 99.0%
- Viability (%) at different lipid concentrations, mean (HepG2 cell line; 50 μM lipid): 97.9%
- Viability (%) at different lipid concentrations, mean (HepG2 cell line; 100 μM lipid): 96.0%
- Viability (%) at different lipid concentrations, mean (HepG2 cell line; 200 μM lipid): 100.0%
- Viability (%) at different lipid concentrations, mean (HepG2 cell line; 400 μM lipid): 96.5%
- Viability (%) at different lipid concentrations, mean (HepG2 cell line; 800 μM lipid): 86.8%
- IC50 (HepG2 cell line): > 800 µM
- Transfection 10 ng mRNA (HeLa cells): 5.85E+04
- Transfection 50 ng mRNA (HeLa cells): 2.12E+06
- Transfection 100 ng mRNA (HeLa cells): 8.19E+06

SMILES: CCCCCCCC/C=C\CCCCCCCCOC(CC[C@@H](C)C1CCC2C3CCC4C[C@H](OC)CC[C@]4(C)C3CC[C@@]21C)O[Si](C)(C)OCCCCCCN(CCO)CCO (stereo partly drawn) [Example 51, (Z)-3-(2-hydroxyethyl)-13-((3R)-3-((3R,10S,13R)-3-methoxy-10,13-dimethylhexadecahydro-1H-cyclopenta[a]phenanthren-17-yl)butyl)-11,11-dimethyl-10,12,14-trioxa-3-aza-11-siladotriacont-23-en-1-ol]
- Viability (%) at different lipid concentrations, mean (HepG2 cell line; 6.25 μM lipid): 98.6%
- Viability (%) at different lipid concentrations, mean (HepG2 cell line; 12.5 μM lipid): 94.4%
- Viability (%) at different lipid concentrations, mean (HepG2 cell line; 25 μM lipid): 96.3%
- Viability (%) at different lipid concentrations, mean (HepG2 cell line; 50 μM lipid): 100.0%
- Viability (%) at different lipid concentrations, mean (HepG2 cell line; 100 μM lipid): 109.9%
- Viability (%) at different lipid concentrations, mean (HepG2 cell line; 200 μM lipid): 114.9%
- Viability (%) at different lipid concentrations, mean (HepG2 cell line; 400 μM lipid): 102.9%
- Viability (%) at different lipid concentrations, mean (HepG2 cell line; 800 μM lipid): 98.6%
- IC50 (HepG2 cell line): > 800 µM
- Transfection 10 ng mRNA (HeLa cells): 1.05E+04
- Transfection 50 ng mRNA (HeLa cells): 1.70E+05
- Transfection 100 ng mRNA (HeLa cells): 7.44E+05

SMILES: CCCCC/C=C\C/C=C\CCCCCCCCOC(CC[C@@H](C)C1CCC2C3CCC4C[C@H](OC)CC[C@]4(C)C3CC[C@@]21C)O[Si](C)(C)OCCCCCCN(CCO)CCO (stereo partly drawn) [Example 52, (23Z,26Z)-3-(2-hydroxyethyl)-13-((3R)-3-((3R,10S,13R)-3-methoxy-10,13-dimethylhexadecahydro-1H-cyclopenta[a]phenanthren-17-yl)butyl)-11,11-dimethyl-10,12,14-trioxa-3-aza-11-siladotriaconta-23,26-dien-1-ol]
- Viability (%) at different lipid concentrations, mean (HepG2 cell line; 6.25 μM lipid): 101.2%
- Viability (%) at different lipid concentrations, mean (HepG2 cell line; 12.5 μM lipid): 101.1%
- Viability (%) at different lipid concentrations, mean (HepG2 cell line; 25 μM lipid): 104.2%
- Viability (%) at different lipid concentrations, mean (HepG2 cell line; 50 μM lipid): 120.8%
- Viability (%) at different lipid concentrations, mean (HepG2 cell line; 100 μM lipid): 112.2%
- Viability (%) at different lipid concentrations, mean (HepG2 cell line; 200 μM lipid): 76.7%
- Viability (%) at different lipid concentrations, mean (HepG2 cell line; 400 μM lipid): 5.3%
- Viability (%) at different lipid concentrations, mean (HepG2 cell line; 800 μM lipid): −0.7%
- IC50 (HepG2 cell line): 233 µM
- Transfection 10 ng mRNA (HeLa cells): 1.02E+05
- Transfection 50 ng mRNA (HeLa cells): 1.65E+06
- Transfection 100 ng mRNA (HeLa cells): 9.16E+06

SMILES: CCCCC/C=C\C/C=C\CCCCCCCCOC(CCCCCCC/C=C\C/C=C\CCCCC)O[Si](C)(C)OCCCCCCN1CCOCC1 (stereo not drawn) [Example 55, 4-((20Z,23Z)-10-((8Z,11Z)-heptadeca-8,11-dien-1-yl)-8,8-dimethyl-7,9,11-trioxa-8-silanonacosa-20,23-dien-1-yl)morpholine]
- Viability (%) at different lipid concentrations, mean (HepG2 cell line; 6.25 μM lipid): 91.7%
- Viability (%) at different lipid concentrations, mean (HepG2 cell line; 12.5 μM lipid): 90.4%
- Viability (%) at different lipid concentrations, mean (HepG2 cell line; 25 μM lipid): 92.4%
- Viability (%) at different lipid concentrations, mean (HepG2 cell line; 50 μM lipid): 90.9%
- Viability (%) at different lipid concentrations, mean (HepG2 cell line; 100 μM lipid): 94.1%
- Viability (%) at different lipid concentrations, mean (HepG2 cell line; 200 μM lipid): 90.7%
- Viability (%) at different lipid concentrations, mean (HepG2 cell line; 400 μM lipid): 7.9%
- Viability (%) at different lipid concentrations, mean (HepG2 cell line; 800 μM lipid): 1.9%
- IC50 (HepG2 cell line): 316 µM
- Transfection 10 ng mRNA (HeLa cells): 1.32E+06
- Transfection 50 ng mRNA (HeLa cells): 7.68E+06
- Transfection 100 ng mRNA (HeLa cells): 1.03E+07
